Source: the supplement of paper PMC10307832

How the values were obtained:
Assay in all cases: relative viability (nuclei count vs DMSO), 5 days (fraction); higher = more cells survive
RU-SKI 43 + Alpelisib = compound: CC[C@@H](C)CNCC(=O)N1CCC2=C([C@@H]1COC3=CC=CC(=C3)C)C=CS2 [RU-SKI 43] + Cc1nc(NC(=O)N2CCC[C@H]2C(N)=O)sc1-c1ccnc(C(C)(C)C(F)(F)F)c1 [Alpelisib] (partner 2 µM)
Summary of the method: (§1)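 Nuclei were stained with Hoechst during a one-step fixation (final 0.05% Triton X-100, 1% formaldehyde, 1 ug/ml Hoechst) carried out 5 days after dosing, then counted on 4× images. The cells, lung cancer lines in 1536-well plates, had been dosed by pin tool the day after seeding with one drug alone or a fixed anchor-drug dose plus five library-drug doses (not always all listed) in √10 steps. Relative viability is the nuclei count in treated wells divided by that in vehicle wells, and each value is the median of duplicate plates.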

Irinotecan + Trametinib = compound: CCc1c2c(nc3ccc(OC(=O)N4CCC(N5CCCCC5)CC4)cc13)-c1cc3c(c(=O)n1C2)COC(=O)[C@]3(O)CC [Irinotecan] + CC(=O)Nc1cccc(-n2c(=O)n(C3CC3)c(=O)c3c(Nc4ccc(I)cc4F)n(C)c(=O)c(C)c32)c1 [Trametinib] (partner 0.02 µM)
Summary of the method: as §1

Irinotecan + Lapatinib = compound: CCc1c2c(nc3ccc(OC(=O)N4CCC(N5CCCCC5)CC4)cc13)-c1cc3c(c(=O)n1C2)COC(=O)[C@]3(O)CC [Irinotecan] + CS(=O)(=O)CCNCc1ccc(-c2ccc3ncnc(Nc4ccc(OCc5cccc(F)c5)c(Cl)c4)c3c2)o1 [Lapatinib] (partner 2 µM)
Summary of the method: as §1

RU-SKI 43 + Olaparib = compound: CC[C@@H](C)CNCC(=O)N1CCC2=C([C@@H]1COC3=CC=CC(=C3)C)C=CS2 [RU-SKI 43] + O=C(c1cc(Cc2n[nH]c(=O)c3ccccc23)ccc1F)N1CCN(C(=O)C2CC2)CC1 [Olaparib] (partner 8 µM)
Summary of the method: as §1

Row | Cell Line | relative viability (RU-SKI 43 + Alpelisib; first compound 0.1 µM) | relative viability (RU-SKI 43 + Alpelisib; first compound 0.3162 µM) | relative viability (RU-SKI 43 + Alpelisib; first compound 1 µM) | relative viability (RU-SKI 43 + Alpelisib; first compound 3.162 µM) | relative viability (RU-SKI 43 + Alpelisib; first compound 10 µM) | relative viability (Irinotecan + Trametinib; first compound 2 µM) | relative viability (Irinotecan + Trametinib; first compound 6.325 µM) | relative viability (Irinotecan + Trametinib; first compound 20 µM) | relative viability (Irinotecan + Lapatinib; first compound 2 µM) | relative viability (Irinotecan + Lapatinib; first compound 6.325 µM) | relative viability (Irinotecan + Lapatinib; first compound 20 µM) | relative viability (RU-SKI 43 + Olaparib; first compound 0.1 µM) | relative viability (RU-SKI 43 + Olaparib; first compound 0.3162 µM) | relative viability (RU-SKI 43 + Olaparib; first compound 1 µM) | relative viability (RU-SKI 43 + Olaparib; first compound 3.162 µM) | relative viability (RU-SKI 43 + Olaparib; first compound 10 µM) | relative viability (Irinotecan + Trametinib; first compound 0.6325 µM) | relative viability (Irinotecan + Lapatinib; first compound 0.6325 µM)
1 | NCI-H1793 | 0.676 | 0.784 | 0.764 | 0.894 | 0.686 | 0.515 | 0.351 | 0.262 | 0.547 | 0.253 | 0.235 | 0.744 | 0.558 | 1.02 | 0.833 | 0.719 | – | –
2 | NCI-H1915 | 0.991 | 1.14 | 1.12 | 1.05 | 1.04 | 0.175 | 0.122 | 0.127 | 0.373 | 0.147 | 0.15 | 0.266 | 0.288 | 0.25 | 0.261 | 0.251 | 0.25 | 0.434
3 | NCI-H1944 | 0.888 | 0.815 | 0.843 | 0.872 | 0.786 | 0.204 | 0.177 | 0.178 | 0.369 | 0.178 | 0.187 | 0.391 | 0.417 | 0.413 | 0.433 | 0.386 | 0.291 | 0.563
4 | NCI-H1975 | 0.692 | 0.717 | 0.806 | 0.66 | 0.583 | 0.341 | 0.292 | 0.224 | 0.689 | 0.302 | 0.14 | 0.752 | 1 | 0.892 | 0.729 | 0.767 | 0.224 | 0.86
5 | NCI-H1993 | 0.655 | 0.678 | 0.702 | 0.701 | 0.66 | 0.5 | 0.527 | 0.517 | 0.76 | 0.671 | 0.458 | 1.12 | 1.22 | 1.16 | 0.948 | 0.942 | – | 0.802
6 | NCI-H2009 | 1.18 | 1.3 | 1.2 | 1.15 | 1.13 | 0.34 | 0.213 | 0.0843 | 0.445 | 0.294 | 0.12 | 0.659 | 0.803 | 0.735 | 0.698 | 0.584 | 0.282 | 0.308
7 | NCI-H2023 | 0.62 | 0.722 | 0.6 | 0.605 | 0.521 | 0.646 | 0.261 | 0.0947 | 0.408 | 0.129 | 0.045 | 0.457 | 0.478 | 0.44 | 0.416 | 0.526 | 0.589 | 0.484
8 | NCI-H2085 | 0.93 | 1.02 | 1.09 | 1.01 | 0.845 | 0.397 | 0.32 | 0.252 | 0.608 | 0.473 | 0.515 | 0.765 | 0.681 | 0.717 | 0.741 | 0.785 | 0.521 | 0.592
9 | NCI-H2087 | 1 | 1.4 | 1.12 | 1.11 | 0.788 | 0.151 | 0.137 | 0.196 | 0.3 | 0.168 | 0.205 | 0.481 | 0.63 | 0.669 | 0.616 | 0.559 | 0.0883 | 0.299
10 | NCI-H2126 | 0.769 | 0.82 | 0.825 | 0.831 | 0.727 | 0.347 | 0.273 | 0.304 | 0.632 | 0.304 | 0.357 | 0.903 | 1.07 | 0.936 | 0.845 | 0.865 | 0.546 | –
11 | NCI-H2170 | 0.78 | 0.855 | 0.86 | 0.826 | 0.808 | 0.309 | 0.119 | 0.111 | 0.264 | 0.231 | 0.2 | 0.587 | 0.683 | 0.599 | 0.61 | 0.59 | 0.798 | 0.271
12 | NCI-H2228 | 0.667 | 0.768 | 1.08 | 0.704 | 0.423 | 0.611 | 0.402 | 0.437 | 0.772 | 0.461 | 0.353 | 0.6 | 0.858 | 0.642 | 0.638 | 0.654 | 0.279 | 0.798
13 | NCI-H2347 | 1.1 | 1.19 | 1.13 | 1.15 | 0.949 | 0.382 | 0.351 | 0.415 | 0.738 | 0.449 | 0.444 | 0.547 | 0.499 | 0.553 | 0.504 | 0.569 | 0.271 | 0.682
14 | NCI-H2405 | 0.8 | 0.787 | 0.651 | 0.789 | 0.721 | 0.734 | 0.358 | 0.179 | 1.05 | 0.333 | 0.101 | 0.835 | 0.885 | 0.905 | 0.855 | 0.842 | – | –
15 | NCI-H3122 | 0.771 | 0.7 | 0.743 | 0.935 | 0.734 | 0.146 | 0.111 | 0.108 | 0.529 | 0.24 | 0.274 | 0.623 | 0.64 | 0.663 | 0.649 | 0.579 | 0.192 | 0.994
16 | PC-3 [JPC-3] | 0.988 | 1.03 | 1.11 | 1.08 | 0.998 | 0.811 | 0.534 | 0.358 | 0.45 | 0.311 | 0.316 | 1.09 | 1.3 | 1.2 | 1.2 | 1.06 | 0.671 | 0.3
17 | PC-14 | 0.9 | 0.91 | 1.04 | 0.938 | 0.956 | 0.436 | 0.164 | 0.137 | 0.262 | 0.15 | 0.16 | 0.22 | 0.174 | 0.294 | 0.263 | 0.401 | 0.744 | 0.314
